From patent US20080119515A1, “Heterocyclic Kinase Inhibitors: Methods of Use and Synthesis” (priority 2003, published 2008)

Target: T1, ZAP-70 (Homo sapiens, UniProt P43403)
T1 sequence (P43403 1-619): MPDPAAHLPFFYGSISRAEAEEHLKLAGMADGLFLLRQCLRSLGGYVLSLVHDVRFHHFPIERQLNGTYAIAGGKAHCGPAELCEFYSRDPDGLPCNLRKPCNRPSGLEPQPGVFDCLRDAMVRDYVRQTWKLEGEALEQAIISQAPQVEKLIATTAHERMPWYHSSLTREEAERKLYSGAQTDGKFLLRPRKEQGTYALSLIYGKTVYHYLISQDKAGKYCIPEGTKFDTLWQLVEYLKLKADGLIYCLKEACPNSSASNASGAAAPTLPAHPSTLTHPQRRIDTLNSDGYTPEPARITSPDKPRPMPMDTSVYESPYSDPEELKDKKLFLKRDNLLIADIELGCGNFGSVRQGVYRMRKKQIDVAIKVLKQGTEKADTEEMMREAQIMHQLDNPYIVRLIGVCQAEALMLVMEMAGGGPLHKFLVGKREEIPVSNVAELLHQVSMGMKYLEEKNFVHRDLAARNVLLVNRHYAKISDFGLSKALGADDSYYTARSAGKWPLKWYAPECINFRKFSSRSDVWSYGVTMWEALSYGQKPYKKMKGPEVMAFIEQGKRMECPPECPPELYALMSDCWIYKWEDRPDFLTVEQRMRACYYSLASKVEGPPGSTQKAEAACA
Assay: DELFIA assay (ZAP-70 kinase, phosphorylation of biotinylated poly(glu,tyr))
Format: biochemical
Conditions: ZAP-70 DELFIA, class symbols; read-out: Activity (IC50 in vitro)
Experimental: Before initiation of kinase reactions, compounds were pre-incubated with ZAP-70. Pre-incubation reactions contained 62.5 mM Mops pH 7.0, 12.5 mM MgCl2, 12.5% glycerol, 3.1 nM ZAP-70, 62.5 nM biotinylated poly(glu,Tyr), 0.1 mg/ml BSA, 6.25% DMSO and […] compound in a total volume of […]. After a 10 minute room temperature incubation, 10 ml of 5 mM ATP was added to start the reaction. Reactions were incubated at room temperature for 30 minutes then terminated by addition of 5 ml 500 mM EDTA. The amount of phosphate transferred to biotinylated poly(glu,tyr) was measured using the Dissociation Enhanced Lanthanide Fluorescence Immuno-assay (DELFIA) from Perkin Elmer according to manufacturers protocol. Briefly, biotinylated […] was captured on streptavidin coated plates, washed twice, then incubated with Europium labeled-anti-phosphotyrosine antibody. Free antibody was removed with six washes, Europium was dissociated from the antibody, and Europium fluorescence was measured at using an excitation wavelength of 340 nm and an emission wavelength of 615 nm.

SMILES	IC50 [µM]
O=C(c1cc(/C=C/c2ccccc2)nc(/C=C/c2ccccc2)c1)N1CCC[C@H]1CN1CCCC1 [Compound 116]	1 to 10
CC(Nc1cc(C(=O)N2CCC[C@H]2CN2CCCC2)c2cc(-c3ccc4c(c3)OCO4)ccc2n1)c1ccc(F)cc1 (stereo partly shown) [Compound 117]	< 1
O=C(c1cc(NCc2ccc(C(F)(F)F)cc2)nc2cc(-c3ccc4c(c3)OCO4)ccc12)N1CCC[C@H]1CN1CCCC1 [Compound 118]	1 to 10
N#Cc1cccc(-c2ccc3c(C(=O)N4CCC[C@H]4CN4CCCC4)cc(NCc4ccc(C(F)(F)F)cc4)nc3c2)c1 [Compound 119]	> 10
N#Cc1ccc(-c2ccc3c(C(=O)N4CCC[C@H]4CN4CCCC4)cc(NCc4ccc(C(F)(F)F)cc4)nc3c2)cc1 [Compound 120]	1 to 10
O=C(c1cc(NCc2ccc(C(F)(F)F)cc2)nc2cc(-c3cc(F)cc(F)c3)ccc12)N1CCC[C@H]1CN1CCCC1 [Compound 121]	1 to 10
O=C(c1cc(NCc2ccc(C(F)(F)F)cc2)nc2cc(-c3ccc(Cl)c(Cl)c3)ccc12)N1CCC[C@H]1CN1CCCC1 [Compound 122]	1 to 10
CS(=O)(=O)c1ccc(-c2ccc3c(C(=O)N4CCC[C@H]4CN4CCCC4)cc(NCc4ccc(C(F)(F)F)cc4)nc3c2)cc1 [Compound 123]	1 to 10
Cc1c(NCc2ccc(C(F)(F)F)cc2)nc2ccc(-c3ccc4c(c3)OCO4)cc2c1C(=O)N1CCC[C@H]1CN1CCCC1 [Compound 124]	1 to 10
O=C(c1cc(NCc2ccc(C(F)(F)F)cc2)nc2ccc(-c3ccc4c(c3)OC(F)(F)C(F)(F)O4)cc12)N1CCC[C@H]1CN1CCCC1 [Compound 125]	< 1
O=C(c1cc(NCc2ccc(C(F)(F)F)cc2)nc2ccc(-c3ccc4c(c3)OCCO4)cc12)N1CCC[C@H]1CN1CCCC1 [Compound 126]	< 1
O=C(c1cc(NCc2ccc(C(F)(F)F)cc2)nc2ccc(-c3ccc4cc[nH]c4c3)cc12)N1CCC[C@H]1CN1CCCC1 [Compound 127]	< 1
O=C(c1cc2cc(-c3ccc4c(c3)OCO4)ccc2nc1NCc1ccc(C(F)(F)F)cc1)N1CCCC1CN1CCCC1 (stereo not shown) [Compound 128]	> 10
CN(Cc1ccccc1)c1cc(C(=O)N2CCC[C@H]2CN2CCCC2)c2cc(Oc3ccccc3)ccc2n1 [Compound 129]	1 to 10
O=C(c1cc(/C=C/c2ccccc2)nc2ccc(-c3ccc4c(c3)OCO4)cc12)N1CCC[C@H]1CN1CCCC1 [Compound 130]	1 to 10
O=C(c1cc(/C=C/c2ccc(F)cc2)nc2ccc(-c3ccc4c(c3)OCO4)cc12)N1CCC[C@H]1CN1CCCC1 [Compound 131]	1 to 10
O=C(c1cc(/C=C/c2ccc(Cl)cc2)nc2ccc(-c3ccc4c(c3)OCO4)cc12)N1CCC[C@H]1CN1CCCC1 [Compound 132]	1 to 10
O=C(c1cc(/C=C/c2ccc(C(F)(F)F)cc2)nc2ccc(-c3ccc4c(c3)OCO4)cc12)N1CCC[C@H]1CN1CCCC1 [Compound 133]	1 to 10
O=C(c1cc(CCc2ccccc2)nc2ccc(-c3ccc4c(c3)OCO4)cc12)N1CCC[C@H]1CN1CCCC1 [Compound 134]	1 to 10
O=C(c1cc(CCc2ccc(F)cc2)nc2ccc(-c3ccc4c(c3)OCO4)cc12)N1CCC[C@H]1CN1CCCC1 [Compound 135]	1 to 10
O=C(c1cc(CCc2ccc(Cl)cc2)nc2ccc(-c3ccc4c(c3)OCO4)cc12)N1CCC[C@H]1CN1CCCC1 [Compound 136]	1 to 10
O=C(c1cc(CCc2ccc(C(F)(F)F)cc2)nc2ccc(-c3ccc4c(c3)OCO4)cc12)N1CCC[C@H]1CN1CCCC1 [Compound 137]	1 to 10
NC(=O)c1cc(C(=O)N2CCC[C@H]2CN2CCCC2)c2cc(-c3ccc4c(c3)OCO4)ccc2n1 [Compound 138]	> 10

SMILES	IC50 [µM]
O=C(NCc1ccc(C(F)(F)F)cc1)c1cc(C(=O)N2CCC[C@H]2CN2CCCC2)c2cc(-c3ccc4c(c3)OCO4)ccc2n1 [Compound 139]	1 to 10
O=C(NCc1ccc(Cl)cc1)c1cc(C(=O)N2CCC[C@H]2CN2CCCC2)c2cc(-c3ccc4c(c3)OCO4)ccc2n1 [Compound 140]	< 1
O=C(NCCc1ccccc1)c1cc(C(=O)N2CCC[C@H]2CN2CCCC2)c2cc(-c3ccc4c(c3)OCO4)ccc2n1 [Compound 141]	1 to 10
CC(CNC(=O)c1cc(C(=O)N2CCC[C@H]2CN2CCCC2)c2cc(-c3ccc4c(c3)OCO4)ccc2n1)c1ccccc1 (stereo partly shown) [Compound 142]	1 to 10
CCN(Cc1ccc(C)cc1)C(=O)c1cc(C(=O)N2CCC[C@H]2CN2CCCC2)c2cc(-c3ccc4c(c3)OCO4)ccc2n1 [Compound 143]	1 to 10
O=C(Nc1ccccc1)c1cc(C(=O)N2CCC[C@H]2CN2CCCC2)c2cc(-c3ccc4c(c3)OCO4)ccc2n1 [Compound 144]	1 to 10
O=C(c1cc(NCc2ccc(C(F)(F)F)cc2)nc2ccc(-c3ccc4c(c3)OCO4)cc12)N1CC2CC2[C@H]1CN1CCCC1 (stereo partly shown) [Compound 145]	1 to 10
O=C(c1cc(NCc2ccc(Cl)cc2)nc2ccc(-c3ccc4c(c3)OCO4)cc12)N1CC2CC2[C@H]1CN1CCCC1 (stereo partly shown) [Compound 146]	1 to 10
C[C@H]1CCN(C(=O)c2cc(NCc3ccc(C(F)(F)F)cc3)nc3ccc(-c4ccc5c(c4)OCO5)cc23)[C@@H]1CN1CCCC1 [Compound 147]	1 to 10
C[C@H]1CCN(C(=O)c2cc(NCc3ccc(Cl)cc3)nc3ccc(-c4ccc5c(c4)OCO5)cc23)[C@@H]1CN1CCCC1 [Compound 148]	1 to 10
O=C(c1cc(NCc2ccc(C(F)(F)F)cc2)nc2ccc(-c3ccc4c(c3)OCO4)cc12)N1CC[C@H]1CN1CCCC1 [Compound 149]	1 to 10
CN(Cc1ccccc1)c1cc(C(=O)N2CCC[C@H]2CN2CCCC2)c2cc(-c3ccc(C#N)cc3)ccc2n1 [Compound 150]	> 10
COc1ccccc1CNc1cc(C(=O)N2CCC[C@H]2CN2CCCC2)c2cc(-c3ccc(C#N)cc3)ccc2n1 [Compound 151]	> 10
COc1ccc(CNc2cc(C(=O)N3CCC[C@H]3CN3CCCC3)c3cc(-c4ccc(C#N)cc4)ccc3n2)cc1 [Compound 152]	> 10
N#Cc1ccc(-c2ccc3nc(N4CCc5ccccc5C4)cc(C(=O)N4CCC[C@H]4CN4CCCC4)c3c2)cc1 [Compound 153]	> 10
N#Cc1ccc(-c2ccc3nc(NCc4ccccc4)cc(C(=O)N4CCC[C@H]4CN4CCCC4)c3c2)cc1 [Compound 154]	> 10
N#Cc1ccc(-c2ccc3nc(NC4Cc5ccccc5C4)cc(C(=O)N4CCC[C@H]4CN4CCCC4)c3c2)cc1 [Compound 155]	> 10
N#Cc1ccc(-c2ccc3nc(NCCc4ccccc4Cl)cc(C(=O)N4CCC[C@H]4CN4CCCC4)c3c2)cc1 [Compound 156]	> 10
N#Cc1ccc(-c2ccc3nc(NCc4cccc(C(F)(F)F)c4)cc(C(=O)N4CCC[C@H]4CN4CCCC4)c3c2)cc1 [Compound 157]	> 10
N#Cc1ccc(-c2ccc3nc(NCc4ccccc4F)cc(C(=O)N4CCC[C@H]4CN4CCCC4)c3c2)cc1 [Compound 158]	> 10
N#Cc1ccc(-c2ccc3nc(NCc4ccc(F)cc4)cc(C(=O)N4CCC[C@H]4CN4CCCC4)c3c2)cc1 [Compound 159]	> 10
COc1cccc(CNc2cc(C(=O)N3CCC[C@H]3CN3CCCC3)c3cc(-c4ccc(C#N)cc4)ccc3n2)c1 [Compound 160]	> 10
N#Cc1ccc(-c2ccc3nc(NCc4cccc(F)c4)cc(C(=O)N4CCC[C@H]4CN4CCCC4)c3c2)cc1 [Compound 161]	> 10
